Molecular target: T1, NgPatBΔ100 (Neisseria gonorrhoeae, UniProt Q5F966)
T1 construct: gene NGO_0533; SGNH domain (Δ100, N-terminal truncation), E. coli BL21(DE3), His-SUMO tag removed by Ulp1; catalytic Ser133, His305, Asp302
Assay: transacetylation of chitopentaose
Assay type: biochemical
Conditions: acetyl donor (1 mM acetyl-amino acids); chitopentaose acceptor; 50 mM sodium phosphate pH 7.0

T1 sequence (Q5F966 entry or part of it, stated change not applied): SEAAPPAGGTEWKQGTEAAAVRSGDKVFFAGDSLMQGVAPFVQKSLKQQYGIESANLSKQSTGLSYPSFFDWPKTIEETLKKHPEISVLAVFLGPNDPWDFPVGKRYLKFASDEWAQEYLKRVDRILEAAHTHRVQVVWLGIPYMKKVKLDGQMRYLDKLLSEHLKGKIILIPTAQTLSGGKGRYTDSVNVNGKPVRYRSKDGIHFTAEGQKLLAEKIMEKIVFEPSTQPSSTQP

## CC(=O)Oc1ccc(C[C@H](N)C(=O)O)cc1 [O-acetyl-Tyr]
  transacetylation of chitopentaose: O-acetyl-Tyr, but not O-acetyl-Ser, were sufficient for transacetylation of chitopentaose by NgPatB

Source: PMC12148441, “The mechanism of peptidoglycan O-acetylation in Gram-negative bacteria typifies bacterial MBOAT-SGNH acyltransferases [drawing 1]” (The Journal of Biological Chemistry, 2025)
